Results published in patent US20220264913A1, “MULTIFUNCTIONAL EXTRACTS OF SUGARCANE STRAW OR BAGASSE AND USES THEREOF” (UNIVERSIDADE CATÓLICA PORTUGUESA - UCP, priority 2019, published 2022).

Columns and labels:
Type in all cases: cell-based
Conditions in all cases: extracts 50% ethanol, ND = inhibition not detected
E. coli = assay: MIC/MBC determination, E. coli
Description: (§1) The antimicrobial activity of the extracts was evaluated by measuring the minimum inhibitory concentration (MIC) and the minimum bactericidal concentration (MBC) of the extracts using the methods of the clinical and laboratory standards institute for aerobic (M07-A9) and anaerobic bacteria (M11-A8). From a previously filtered 3% stock solution a series of extract dilutions were prepared (2%, 1.5%, 1%, 0.75%, 0.5%, 0.25%, 0.125%, and 0.0625% (w/v)). A commonly used preservative, 2-phenoxyethanol was tested under the same conditions as a positive control.
(§2) MHB growth media was used for aerobic microorganisms and Wilkins Chalgren Broth (WCB) was used for anaerobic microorganisms. The microorganisms were inoculated at 2% (v/v) from an inoculum with 0.5 McFarland standard (ca. 10^8 CFU/mL) and then adjusted in order to obtain a final inoculum of 10^5 CFU/mL in the testing solutions. […] The OD of each well (experimental and control) was measured each hour at 660 nm. […] Afterwards, the concentrations for which no growth was detected were plated in MHA and Wilkins Chalgren Agar (WCA) accordingly, in order to verify the MBC. MBC and MIC were determined by the analysis of maximum absorbance registered, delay of the exponential phase entry, and the calculation of the specific growth rate. […]

P. aeruginosa = assay: MIC/MBC determination, P. aeruginosa
Description: as §1, §2

MSSA = assay: MIC/MBC determination, MSSA
Description: as §1, §2

C. albicans = assay: MIC/MBC determination, C. albicans
Description: as §1, §2

With OCCOc1ccccc1 [Phenoxyethanol, 2-phenoxyethanol] the MBC (E. coli) was 3%, the MBC (P. aeruginosa) was 0.3% and the MBC (MSSA) was 0.3%. The MBC (C. albicans) was 3%.
